In patent US7914830B2, “Composition for inhibiting thrombosis” (Taiyo Kagaku Co., Ltd, priority 2003, dated 2011):

How the values were obtained:
[1] = test system: platelet poor plasma (PPP) separated from human blood; experiment: APTT and heparin-like activity, hibiscus anti-blood coagulant compositions (Test Examples C-1 to C-3); type: biochemical
Experimental: Ten microliters of heparin adjusted to a concentration of 0.05, 0.1, 0.2 or 0.4 U/mL and 40 μL of platelet poor plasma (PPP) separated from human blood were placed in a reaction cuvette, and the components were reacted at 37° C. for 1 minute. Thereafter, 50 μL of an APTT reagent (manufactured by INTERNATIONAL REAGENTS CORPORATION) was added thereto to further react at 37° C. for 2 minutes, and 50 μL of 25 mM calcium chloride was then added. The time period by which plasma was coagulated (APTT; second) was measured with a coagulometer (manufactured by SYSMEX CORPORATION). In order to evaluate the anti-blood coagulant effect of the anti-blood coagulant composition of the present invention, a calculation formula for the heparin-like activity value (U/mg) was obtained from the relationship between the heparin concentration and the APTT of heparin.
Thereafter, 50 μL of an APTT reagent (manufactured by INTERNATIONAL REAGENTS CORPORATION) was added to further react the components at 37° C. for 2 minutes.

[2] = test system: platelet poor plasma (PPP) separated from human blood; experiment: APTT and heparin-like activity, enzymatically treated Hizikia fusiforme compositions (Test Examples F″-1, F″-2); type: biochemical
Experimental: The thrombus preventing effect of the composition A for preventing thrombus of the present invention was evaluated by measuring the APTT with a coagulometer (manufactured by SYSMEX CORPORATION) utilizing platelet poor plasma (PPP) separated from human blood.
(§1) Ten microliters of a sample of which amount was adjusted so as to have a concentration of 0.075, 0.15, 0.3 or 0.5 mg/mL calculated as a solid content, and 40 μl of PPP were placed in a reaction cuvette to react the components at 37° C. for 1 minute. Thereafter, 50 μL of an APTT reagent (manufactured by INTERNATIONAL REAGENTS CORPORATION) was added thereto to further react the components at 37° C. for 2 minutes, and 50 μL of 25 mM calcium chloride was then added thereto. The time period (second) by which plasma was coagulated was measured, and defined as APTT.
Here, as the control, the APTT was measured in the same manner using heparin adjusted to a concentration of 0.05, 0.1, 0.2 or 0.3 U/mL as a sample. The following calculation formula for a heparin-like activity value (U/mg) was obtained from the relationship between the concentration of heparin and the APTT of heparin. The resultant value was plugged into the calculation formula to give a heparin-like activity value relative to heparin (1 U/mL) at each sample concentration.
The APTTs were measured for the composition A for preventing thrombus obtained in Example F″-1, the compositions B and C for preventing thrombus obtained in Example F″-2, and the comparative composition obtained in Comparative Example F″-1 in the same manner as in Test Example F″-1 at a concentration of 0.2 mg/mL calculated as a solid content. Thereafter, the resultant value was plugged into the calculation formula for a heparin-like activity value (U/mg) in Test Example F″-1, to give a heparin-like activity value of each composition for preventing thrombus.

[3] = test system: platelet rich plasma of a normal individual; experiment: Prothrombin time (PT), anti-extrinsic blood coagulant activity, Hizikia fusiforme (Test Examples F-1, F-2); type: biochemical, human
Experimental: The anti-extrinsic blood coagulant activity of the extrinsic blood coagulation preventing composition of the present invention was obtained as follows: Ten microliters of a sample of a heparin test solution adjusted by […] rich plasma of a normal individual using a coagulometer (manufactured by SYSMEX CORPORATION) to react the components at 37° C. for 1 minute. Thereafter, 100 μL of a PT reagent (manufactured by INTERNATIONAL REAGENTS CORPORATION) was added thereto, and the time period by which plasma was coagulated was measured, i.e. PT was measured. From the relationship between the concentration of this heparin test solution and the PT, the following numerical formula for a heparin-like activity value (U/mg) was obtained.
Thereafter, a sample was prepared by diluting the extrinsic blood coagulation preventing composition A of the present invention with distilled water so as to have a concentration of 0.078, 0.156, 0.313, 0.625 or 1.25 mg/mL calculated as a solid content. The PT was measured in the same manner and the resultant value was plugged into the above numerical formula to give a heparin-like activity value relative to heparin (1 U/mL) at each sample concentration.
In addition, a PT ratio was calculated at each sample concentration according to the following equation using a heparin test solution concentration of 0 mg/mL as the control. PT Ratio=PT When Adding Sample/PT of Control(Heparin Test Solution Concentration:0 mg/mL)
The PTs were determined for the extrinsic blood coagulation preventing composition A obtained in Example F-1, the extrinsic blood coagulation preventing compositions B, C, D and E obtained in Example F-2, and the extrinsic blood coagulation preventing composition F obtained in Example F-3 at a concentration of 0.2 mg/mL calculated as a solid content. Thereafter, the resultant value was plugged into the calculation formula for a heparin-like activity value (U/mg) in Test Example F-1, and the heparin-like activity value and the PT ratio of each extrinsic blood coagulation preventing composition were obtained. In addition, a sample was prepared using the supernatant fraction with 80% ethyl alcohol in Example F-2 in the same manner, and the heparin-like activity value and the PT ratio were obtained.

[4] = test system: platelet poor plasma (PPP) separated from human blood; experiment: APTT and heparin-like activity, Hizikia fusiforme thrombus preventing compositions (Test Examples F′-1, F′-2); type: biochemical
Experimental: The thrombus preventing effect of the thrombus preventing composition A of the present invention was evaluated by measuring the APTT with the coagulometer utilizing platelet poor plasma (PPP) separated from human blood.
as §1, with “concentration of the thrombus preventing composition A of the present invention of 0.075, 0.15,” for “concentration of 0.075, 0.15,”, “and 40 μL of PPP” for “and 40 μl of PPP”, “was added to further” for “was added thereto to further”, “time period (seconds) by which” for “time period (second) by which”
Here, as the control, APTT was measured using heparin adjusted to have a concentration of 0.05, 0.1, 0.2 and 0.3 U/mL as a sample in the same manner. The following calculation formula for a heparin-like activity value (U/mg) was obtained from this relationship between the concentration of this heparin and APTT of heparin, and the resultant value was plugged into this calculation formula to give a heparin-like activity value relative to heparin (1 U/mL) at each sample concentration.
The APTTs were measured for the thrombus preventing composition A obtained in Example F′-1, the thrombus preventing compositions B, D and E obtained in Example F′-2, and the thrombus preventing composition F obtained in Example F′-3 at a concentration of 0.2 mg/mL calculated as a solid content in the same manner as in Test Example F′-1. Thereafter, the resultant value was plugged into the calculation formula for the heparin-like activity value (U/mg) in Test Example F′-1 to give a heparin-like activity value of each thrombus preventing composition. In addition, a sample was prepared in the same manner for the supernatant fraction with 80% ethanol in Example F′-2, and its heparin-like activity value was obtained.

[5] = test system: platelet poor plasma (PPP) separated from human blood; experiment: APTT anti-coagulant activity of carrageenan antithrombotic agents (Test Example G-1); type: biochemical; conditions: for Anti-Coagulant Activity: relative to water control
Experimental: The anti-coagulant activity of the antithrombotic agent of the present invention was assayed with a coagulometer (manufactured by SYSMEX CORPORATION) utilizing platelet poor plasma (PPP) separated from human blood.
Ten microliters of a sample, 25 microliters of an APTT reagent (manufactured by INTERNATIONAL REAGENTS CORPORATION), and 25 microliters of 10% cephalin were placed into a reaction cuvette to react the components at 37° C. for 3 minutes, and 50 microliters of PPP was placed in the reaction cuvette to react the components for 2 minutes. Finally, 50 microliters of 25 millimolar calcium chloride was added to coagulate the mixture obtained. The time period (second) by which plasma was coagulated was measured, and defined as APTT.
Here, water was used as the control, and the APTT was measured in the same manner. The anti-coagulant activity (%) was calculated from the measured APTT of the sample, relative to that of the control according to the following numerical formula. Anti-Coagulant Activity(%)=((APTT of Sample−APTT of Control)/APTT of Control)×100 […]

[6] = heparin concentration 0.05 U/mL

Substance | APTT ([5]; concentration 0.5 mg/mL) [s] | Anti-Coagulant Activity ([5]; concentration 0.5 mg/mL) [%] | APTT ([5]; concentration 2.5 mg/mL) | Anti-Coagulant Activity ([5]; concentration 2.5 mg/mL) | APTT ([5]; concentration 5.0 mg/mL) | Anti-Coagulant Activity ([5]; concentration 5.0 mg/mL) | further results
heparin | – | – | – | – | – | – | APTT [1, 6]: 39.6 s; APTT ([1]; heparin concentration 0.1 U/mL): 50.9 s; APTT ([1]; heparin concentration 0.2 U/mL): 86.4 s; APTT ([1]; heparin concentration 0.4 U/mL): 180.2 s; APTT [2, 6]: 39.6 s; APTT ([2]; heparin concentration 0.1 U/mL): 50.9 s; APTT ([2]; heparin concentration 0.2 U/mL): 86.4 s; APTT ([2]; heparin concentration 0.3 U/mL): 180.2 s; PT ([3]; heparin concentration 0.0625 U/mL): 11.6 s; PT ([3]; heparin concentration 0.125 U/mL): 11.8 s; PT ([3]; heparin concentration 0.25 U/mL): 12.3 s; PT ([3]; heparin concentration 0.5 U/mL): 13.2 s; PT ([3]; heparin concentration 1 U/mL): 18.1 s; APTT [4, 6]: 39.6 s; APTT ([4]; heparin concentration 0.1 U/mL): 50.9 s; APTT ([4]; heparin concentration 0.2 U/mL): 86.4 s; APTT ([4]; heparin concentration 0.3 U/mL): 180.2 s
ι-carrageenan | 162 | 260 | 600 or more sec | 1200 or more % | 600 or more sec | 1200 or more % | –
κ-carrageenan | 99 | 120 | 491 s | 991% | 600 or more sec | 1200 or more % | –
λ-carrageenan | 398 | 784 | 600 or more sec | 1200 or more % | 600 or more sec | 1200 or more % | –
